Data set [1] deals with bovine nasal and pig articular cartilage. The conditions noted are these: Andrews et al. 1992; Ellis et al. 1994; cited from earlier work.
Data set [2] concerns experimental allergic encephalomyelitis (EAE). The following applies: dose dependent; Gijbels et al. 1994; cited from earlier work.
For data set [3], the target named is GCD (recombinant gelatinase A catalytic domain). The data set can be described thus: Inhibition of thiopeptolide substrate conversion by GCD. The conditions noted are these: thiopeptolide substrate Ac-Pro-Leu-Gly-thioester-Leu-Leu-Gly-OEt. The format is biochemical. An excerpt:
Matrix metalloproteinases share high sequence hemology and the catalytic domains of each of the MMPs can be identified by sequence alignment. The gene for the catalytic domain of stromelysin-1, SCD, was constructed by removing the propeptide and C-terminal domain (Ye Q.-Z., Johnson L. L, Hupe D. J., and Baragi V., "Purification and Characterization of the Human Stromelysin Catalytic Domain Expressed in Escherichia coli", Biochemistry,1992;31:11231-11235). The gelatinase A catalytic domain, GCD, was similarly constructed with the additional removal of the fibronectin-like insert which interrupts the catalytic domain (Ye Q.-Z., Johnson L. L., Yu A. E., and Hupe D., "Reconstructed 19 kDa Catalytic Domain of Gelatinase A is an Active Proteinase", Biochemistry, 1995;34:4702-4708). Both truncated proteins cleave synthetic peptide substrates and the natural substrates proteoglycan and gelatin in a manner similar to the full-length enzymes and can be used to identify matrix metalloproteinase inhibitors.
Experiments were carried out with both the full-length enzymes and the catalytic domains. […] IC50 values were determined using a thiopeptolide substrate, Ac-Pro-Leu-Gly-thioester-Leu-Leu-Gly-OEt (Ye Q.-Z., Johnson L. L., Hupe D. J., and Baragi V., "Purification and Characterization of the Human Stromelysin Catalytic Domain Expressed in Escherichia coli", Biochemistry,1992;31:11231-11235). […]

Data set [4] concerns experimental allergic encephalomyelitis (EAE). The data set can be described thus: EAE Lewis rat acute model, Protocol 1 (daily oral dosing). It counts as in vivo, female Lewis rats. How it is done:
(§1) The activity of Example 2 in suppressing the inflammatory disease associated with EAE was tested using the Lewis rat acute model. Female Lewis rats were purchased from Harlan Sprague-Dawley (Indianapolis, Ind.) and were used at 8 to 10 weeks of age. Active EAE was induced by injection of 0.05 mL emulsion of myelin basic protein (MBP) with complete Freund's adjuvant (CFA), containing 25 μg guinea pig MBP and 100 μg Mycobacterium butyricum (Difco Laboratories, Detroit, Mich.) into one hind footpad. Immunized rats were observed daily for clinical signs of EAE and scored as follows: 0, no symptoms; 1, loss of tail tonicity; 2, paresis; 3, hind limb paralysis, often accompanied by incontinence; and 4, death. Formalin-fixed brain slice sections were stained with hematoxylin-eosin and evaluated microscopically for perivascular and parenchymal infiltration. Compound was administered by gavage as a solution in sterile saline in a volume of 500 μL. The dose of 50 mg/kg typically required 7.5 mg of compound per rat. Several different protocols were used to define the efficacy and timing retirements for potency.
Protocol 1: Compound was administered daily at 50 mg/kg beginning on Day 0 and continuing through Day 14, with MBP in CFA administered on Day 0 also. […] The percentage of animals responding is also very high with 100% of treated animals-showing either a total inhibition of symptoms (80%) or reduction of symptoms (20%). N=5 for all groups.

For data set [5] the test system is unchanged. As to the kind of experiment: EAE Lewis rat acute model, Protocol 2 (alternate day dosing). The format is in vivo, female Lewis rats. The conditions noted are these: for Effect on EAE Rats (≥ Paresis/Total): CFA + MBP, PBS control 5/7. As to the method: as §1
Protocol 2: To determine whether less frequent dosing or dosing at lower levels was still effective at suppressing EAE, compound was administered at either 50 mg/kg or at 10 mg/kg on Day 0 and on alternate days through Day 14. […] Controls run in parallel included CFA only and MBP in CFA. N=4 for treatment groups. N=8 for controls.

Data set [6] relates to leukocyte migration across the blood-brain barrier. The data set can be described thus: Histology of brain slices from EAE rats, Protocol 1. It counts as in vivo, Lewis rat. The conditions noted are these: 50 mg/kg daily. As to the method: as §1
For data set [7], the system named is Mycobacterium footpad edema. The data set can be described thus: Mycobacterium footpad edema assay (MFE). It counts as in vivo, male Wistar rats. The conditions noted are these: daily, third day, statistically significant. As to the method: The activity of Example 2 as a general inhibitor of inflammation was tested using the Mycobacterium footpad edema assay (MFE) in Wistar rats. Compound was administered daily by gavage at 2 mg/kg, 10 mg/kg, or 50 mg/kg.
Male outbred Wistar rats (110-125 g, Charles River Labs, Portage, Mich.) were used in this study. Rats were housed for a minimum of 1 week before use. Food and water were supplied ad libitum. Foot pad edema was induced following the method described by Martel R. R. and Klicius J., "Comparisons in rats of the anti-inflammatory and gastric irritant effects of etodolac with several clinically effective antiinflammatory drugs", Agents and Actions, 1982;12:295. Briefly, male Wistar rats were injected subcutaneously into the right hind footpad with 0.1 mL of 5 mg/mL suspension of killed and dried Mycobacterium butyricum (Difco, Detroit, Mich.) in liquid paraffin. Compound was suspended in 0.5% hydroxypropylmethylcellulose (HPMC) containing 0.2% Tween-80 and administered orally 1 hour before injection. Subsequent doses of the compound were given 24 and 48 hours after the Mycobacterium. Control animals were given vehicle alone. Swelling was assessed on the third day by subtracting the initial volume (determined immediately following the Mycobacterium injection) from the final volume of the treated paw. Paw volume was determined by mercury plethysmography. The percent inhibition of edema achieved in each compound-treated group was determined by comparison with swelling in the vehicle-treated group and the ID50 values were determined by regression analysis. Statistical significance between experimental groups was evaluated using a Student's t-test.

A further data set can be described thus: Plasma concentrations. It counts as in vivo.

As for “TIMP-1: natural endogenous inhibitors of MMPs (TIMPs)”, the “formation of collagen fragments” value in data set [1] is recorded as “prevented the formation of collagen fragments”.
As for `CNC(=O)[C@H](Cc1c[nH]c2ccccc12)NC(=O)[C@@H](CC(=O)NO)CC(C)C` [GM6001], the “clinical expression/development of EAE” value in data set [2] is “suppressed the development or reversed the clinical expression”.
Broadly, the IC50 is the concentration that inhibits the measured activity by half. As for `O=C(O)CCC(=NO)c1ccc2oc3ccccc3c2c1` [Example 2, 4-Dibenzofuran-2-yl-4-hydroximino-butyric acid], the IC50 in data set [3] is 40 nM. Also, in data set [4] (50 mg/kg daily, Day 0-14), the “effect on average scores for the treated group” value is listed as “substantially reduced the average scores”. Further, the “treated animals showing either a total inhibition of symptoms or reduction of symptoms” value in data set [4] (50 mg/kg daily, Day 0-14, N=5) stood at 100%. Also, in data set [4] (CFA + MBP, 50 mg/kg daily oral from Day 0), the “Day of Peak” value stood at 12 days. Also, the “Clinical Grade at Peak of Disease Expression” value in data set [4] (CFA + MBP, 50 mg/kg daily oral from Day 0, N=5, SD 1.22, PBS control 3.0) was determined as 1.0; in data set [4] (CFA without MBP, 50 mg/kg daily oral from Day 0, N=5, SD 0), 0. Besides, the “Effect on EAE Rats (≥ Paresis/Total)” value in data set [4] (CFA + MBP, 50 mg/kg daily oral from Day 0, PBS control 5/5) is 1/5; in data set [4] (CFA without MBP, 50 mg/kg daily oral from Day 0), 0/5; in data set [5] (10 mg/kg alternate days) it was 0/4; in data set [5] (50 mg/kg alternate days) it was 0/4. Also, the “decrease in disease severity, significance” value in data set [5] (Day 15, p≤0.01, 10 or 50 mg/kg alternate days) is “highly significant”. Besides, the CNS inflammation entry in data set [6] is “little CNS inflammation”. The cuff formation result in data set [6] was “no cuff formation”. Also, in data set [6], the “leukocyte migration across the blood-brain barrier” value is recorded as “completely prevented”. Also, the “% Inhibition of Swelling” value is on record as 23% in data set [7] (2 mg/kg oral), 27% in data set [7] (10 mg/kg oral) and 40% in data set [7] (50 mg/kg oral). The “Cmax and AUC(0-b 4) versus dose” value in the data set “Plasma concentrations” (2, 10, 50 mg/kg) was “increase proportionately with dose”. Further, the “bioavailability versus effective range in vitro” value in the data set “Plasma concentrations” (effective range of gelatinase A and stromelysin-1 inhibition in the in vitro assays) is “well in excess of the effective range of gelatinase A and stromelysin-1 inhibition”.

(Values after US5665764A, “Tricyclic inhibitors of matrix metalloproteinases” (Warner-Lambert Company, priority 1995, dated 1997).)
